Consider 21 molecules from PubChem BioAssay AID328 (DTP/NCI, 2004).

SMILES strings stand for the structures. Values joined by “and” are separate entries in the source; they are usually repeats but may differ in a detail not shown here. Equal entries are not always repeated. Inconclusive results and toxic doses are left out.

The subject of this assay is BDF1 mice, P388 leukemia ip, median survival T/C. In words: NCI In Vivo Anticancer Drug Screen. Data for tumor model P388 Leukemia (intraperitoneal) in B6D2F1 (BDF1) mice. Particulars: endpoint: median survival time, higher = longer survival. The procedure, abridged:
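Vehicle-dosed animals serve as the reference; survival of compound-dosed, tumour-implanted mice is divided by it.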

Setting [1] is: dose: 3.13 mg/kg/injection, schedule: Q01DX009 (ip), vehicle: saline.
Where [2] appears, read: dose: 25.0 mg/kg/injection, schedule: Q01DX009 (ip), vehicle: saline with Tween-80.
The mark [3] stands for this setting: dose: 50.0 mg/kg/injection, schedule: Q04DX003 (ip), vehicle: saline.
The mark [4] stands for this setting: dose: 100.0 mg/kg/injection, schedule: Q04DX003 (ip), vehicle: saline with Tween-80.
Where [5] appears, read: dose: 200.0 mg/kg/injection, schedule: Q04DX003 (ip), vehicle: saline with Tween-80.
[6] abbreviates: dose: 50.0 mg/kg/injection, schedule: Q01DX009 (ip), vehicle: Klucel (hydroxypropylcellulose) (HPC).
The mark [7] stands for this setting: dose: 100.0 mg/kg/injection, schedule: Q01DX009 (ip), vehicle: Klucel (hydroxypropylcellulose) (HPC).
Setting [8] is: dose: 100.0 mg/kg/injection, schedule: Q04DX003 (ip), vehicle: Klucel (hydroxypropylcellulose) (HPC).
Where [9] appears, read: dose: 200.0 mg/kg/injection, schedule: Q04DX003 (ip), vehicle: Klucel (hydroxypropylcellulose) (HPC).
The mark [10] stands for this setting: dose: 400.0 mg/kg/injection, schedule: Q04DX003 (ip), vehicle: Klucel (hydroxypropylcellulose) (HPC).
Where [11] appears, read: dose: 50.0 mg/kg/injection, schedule: Q01DX009 (ip), vehicle: saline with Tween-80.
Where [12] appears, read: dose: 100.0 mg/kg/injection, schedule: Q01DX009 (ip), vehicle: saline with Tween-80.
[13] abbreviates: dose: 200.0 mg/kg/injection, schedule: Q01DX009 (ip), vehicle: saline with Tween-80.
[14] abbreviates: dose: 50.0 mg/kg/injection, schedule: Q01DX009 (ip), vehicle: saline.
The mark [15] stands for this setting: dose: 100.0 mg/kg/injection, schedule: Q01DX009 (ip), vehicle: saline.
Setting [16] is: dose: 200.0 mg/kg/injection, schedule: Q01DX009 (ip), vehicle: saline.
Where [17] appears, read: dose: 400.0 mg/kg/injection, schedule: Q01DX009 (ip), vehicle: Klucel (hydroxypropylcellulose) (HPC).
[18] abbreviates: dose: 50.0 mg/kg/injection, schedule: Q01DX005 (ip), vehicle: saline with Tween-80.
Where [19] appears, read: dose: 100.0 mg/kg/injection, schedule: Q01DX005 (ip), vehicle: saline with Tween-80.

Regarding `COc1cc(NS(C)(=O)=O)ccc1Nc1c2cccc(C)c2nc2c(C)cccc12`, the T/C (dose: 1.57 mg/kg/injection, schedule: Q01DX009 (ip), vehicle: saline) is 176 % of control; the T/C (dose: 3.13 mg/kg/injection, schedule: Q01DX009 (ip), vehicle: saline with Tween-80) is 150 % of control; the T/C under setting [1] is 201 % of control; the T/C (dose: 6.25 mg/kg/injection, schedule: Q01DX009 (ip), vehicle: saline with Tween-80) was 169 % of control; the T/C (dose: 12.5 mg/kg/injection, schedule: Q01DX009 (ip), vehicle: saline with Tween-80) was 186 % of control; the T/C (dose: 14.6 mg/kg/injection, schedule: Q04DX003 (ip), vehicle: saline) is 163 % of control. For the same molecule, the T/C was 163 % of control (dose: 22.0 mg/kg/injection, schedule: Q04DX003 (ip), vehicle: saline); 231 % of control under setting [2]; 159 % of control (dose: 33.0 mg/kg/injection, schedule: Q04DX003 (ip), vehicle: saline); 227 % of control under setting [3]; 272 % of control under setting [4]; 109 % of control under setting [5].
On to `N#Cc1ccc(-c2ccc(C#N)cc2Br)c(Br)c1`, for which the T/C is, setting by setting: (dose: 22.0 mg/kg/injection, schedule: Q01DX009 (ip), vehicle: Klucel (hydroxypropylcellulose) (HPC)) 92 % of control; (dose: 25.0 mg/kg/injection, schedule: Q01DX009 (ip), vehicle: Klucel (hydroxypropylcellulose) (HPC)) 110 % of control; (dose: 33.0 mg/kg/injection, schedule: Q01DX009 (ip), vehicle: Klucel (hydroxypropylcellulose) (HPC)) 95 % of control; under setting [6], 100 % of control; (dose: 75.0 mg/kg/injection, schedule: Q01DX009 (ip), vehicle: Klucel (hydroxypropylcellulose) (HPC)) 89 % of control; under setting [7], 88 % of control and 110 % of control. For the same molecule, the T/C reads like this: under setting [8], 95 % of control; under setting [9], 100 % of control; under setting [10], 100 % of control.
In the case of `OCc1ccccc1Sc1ccccc1CO`, the T/C under setting [11] was 91 % of control, the T/C under setting [12] was 100 % of control and the T/C under setting [13] is 99 % of control.
`CC(C)(C)OC(=O)NC(CCSCC(=O)O)C(N)=O` (centres undefined): the T/C reads like this: under setting [14], 91 % of control; under setting [15], 88 % of control; under setting [16], 95 % of control.
In the case of `Nc1nc2ncc(CN(CCS(=O)(=O)F)c3ccc(C(=O)NC(CCC(=O)O)C(=O)O)cc3)nc2c(=O)[nH]1` (centres undefined), the T/C reads like this: (dose: 50.0 mg/kg/injection, schedule: Q04DX003 (ip), vehicle: sodium bicarbonate) 105 % of control; (dose: 100.0 mg/kg/injection, schedule: Q04DX003 (ip), vehicle: sodium bicarbonate) 99 % of control; (dose: 200.0 mg/kg/injection, schedule: Q04DX003 (ip), vehicle: sodium bicarbonate) 94 % of control.
Consider `Oc1ccc(CNCCNCCNCc2ccc(O)cc2)cc1`, for which the T/C by setting is: (dose: 12.5 mg/kg/injection, schedule: Q04DX003 (ip), vehicle: saline) 100 % of control; (dose: 25.0 mg/kg/injection, schedule: Q04DX003 (ip), vehicle: saline) 107 % of control; under setting [3], 109 % of control; (dose: 100.0 mg/kg/injection, schedule: Q04DX003 (ip), vehicle: saline) 100 % of control; (dose: 200.0 mg/kg/injection, schedule: Q04DX003 (ip), vehicle: saline) 105 % of control.
Take `NC(=O)CCC(N)C(=O)O.[Cl-].[Cl-].[Cl-].[Cl-].[Pt+2]` (centres undefined): the T/C by setting is: (dose: 1.56 mg/kg/injection, schedule: Q01DX009 (ip), vehicle: saline) 106 % of control; under setting [1], 107 % of control; (dose: 6.25 mg/kg/injection, schedule: Q01DX009 (ip), vehicle: saline) 124 % of control; (dose: 12.5 mg/kg/injection, schedule: Q01DX009 (ip), vehicle: saline) 153 % of control; (dose: 25.0 mg/kg/injection, schedule: Q01DX009 (ip), vehicle: saline) 172 % of control.
Turning to `Cc1ccc(C(=O)/C=C/c2ccccc2O)cc1`, the T/C reads like this: under setting [6], 99 % of control; under setting [7], 109 % of control; (dose: 200.0 mg/kg/injection, schedule: Q01DX009 (ip), vehicle: Klucel (hydroxypropylcellulose) (HPC)) 107 % of control; under setting [17], 101 % of control.
For the molecule `Cc1ccc(NO)c(C)c1`, the T/C reads like this: under setting [18], 113 % of control; under setting [19], 108 % of control.
Regarding `CCCCn1c(Cl)c(/C=N\Nc2ccccc2[N+](=O)[O-])c2ccccc21`, where the note is “dose: 200.0 mg/kg/injection, schedule: Q01DX001 (ip), vehicle: Klucel (hydroxypropylcellulose) (HPC)”, the T/C is 89 % of control.
Turning to `O=C(O)c1ccc(C(=O)O)c(C(=O)O)c1.[NH-]C1CCCCC1[NH-].[Pt+2]`, the T/C reads like this: (dose: 30.0 mg/kg/injection, schedule: Q01DX001 (ip), vehicle: sodium bicarbonate) 164 % of control; (dose: 50.0 mg/kg/injection, schedule: Q01DX001 (ip), vehicle: sodium bicarbonate) 162 % of control.
Consider `COc1ccc(/C=C/C(=O)c2ccccc2)cc1Br`, for which the T/C was 109 % of control under setting [12]; 109 % of control under setting [13]; 113 % of control (dose: 400.0 mg/kg/injection, schedule: Q01DX009 (ip), vehicle: saline with Tween-80).
`COc1ccc(NC(=S)NN)cc1`: the T/C reads like this: (dose: 25.0 mg/kg/injection, schedule: Q04DX003 (ip), vehicle: saline with Tween-80) 100 % of control; (dose: 50.0 mg/kg/injection, schedule: Q04DX003 (ip), vehicle: saline with Tween-80) 100 % of control; (dose: 66.0 mg/kg/injection, schedule: Q04DX003 (ip), vehicle: saline with Tween-80) 100 % of control; under setting [4], 100 % of control; (dose: 150.0 mg/kg/injection, schedule: Q04DX003 (ip), vehicle: saline with Tween-80) 90 % of control.
For `COc1ccc(Cl)cc1NC(=O)c1ccccc1C(=O)O`, the T/C is, setting by setting: under setting [8], 91 % of control; under setting [9], 87 % of control; under setting [10], 87 % of control.
On to `O=c1cc(-c2cccs2)ss1`, for which the T/C under setting [2] was 106 % of control; the T/C under setting [11] was 97 % of control; the T/C under setting [12] is 86 % of control and 106 % of control; the T/C under setting [4] was 106 % of control; the T/C under setting [13] is 116 % of control; the T/C under setting [5] is 92 % of control.
In the case of `CC(C)(C)C1CCC(C#N)(N=Nc2ccccc2)CC1` (centres undefined), the T/C was 102 % of control under setting [18] and 89 % of control under setting [19].
Take `CCCCCCCCCCNc1ccc(NCCCCCCCCCC)cc1`: the T/C under setting [7] is 100 % of control, the T/C under setting [8] is 120 % of control and the T/C under setting [17] is 100 % of control.
Regarding `N#CN=CN1CCN(c2ccccn2)CC1`, the T/C is 91 % of control under setting [11], 90 % of control under setting [12] and 93 % of control under setting [13].
Turning to `Cc1cc(O)c2c3c(ccc2c1)C(=O)c1c(O)cccc1C3=O`, the T/C (dose: 0.5 mg/kg/injection, schedule: Q01DX009 (ip), vehicle: Klucel (hydroxypropylcellulose) (HPC)) was 109 % of control; the T/C (dose: 1.0 mg/kg/injection, schedule: Q01DX009 (ip), vehicle: Klucel (hydroxypropylcellulose) (HPC)) is 110 % of control; the T/C (dose: 2.0 mg/kg/injection, schedule: Q01DX009 (ip), vehicle: Klucel (hydroxypropylcellulose) (HPC)) was 101 % of control; the T/C (dose: 4.0 mg/kg/injection, schedule: Q01DX009 (ip), vehicle: Klucel (hydroxypropylcellulose) (HPC)) was 101 % of control.
On to `S=C1N=C2c3ccccc3C2C(=S)S1` (centres undefined), for which the T/C reads like this: under setting [11], 109 % of control; under setting [12], 98 % of control; (dose: 150.0 mg/kg/injection, schedule: Q01DX009 (ip), vehicle: saline with Tween-80) 94 % of control.
Turning to `Nc1cc(Cl)ccc1O`, the T/C is 114 % of control under setting [14], 97 % of control under setting [15] and 116 % of control under setting [16].
